In PubChem BioAssay (NCI) one finds GI50 and TGI data, which are given here for eight compounds.

“And” between values parts separate entries of the source, which are not always exact repeats. Equal values may be shown once.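 Five concentrations, 48 hours, 96-well plates. GI50 = concentration required for 50% inhibition of growth. At the TGI there is no net growth.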

Among the test systems are DU-145 prostate; SF-295 CNS; HOP-62 NSCLC; NCI-H522 lung; BT-549 breast; OVCAR-8 ovarian; UACC-62 melanoma; SK-MEL-2 melanoma; 786-0 renal; SK-MEL-5 melanoma.
Holding throughout (assay): growth of human tumour cells (NCI), 48 h

For the compound `Oc1c(CN2CCC(N3CCOCC3)CC2)cc(Cc2cc(CN3CCC(N4CCOCC4)CC3)c(O)c3ncccc23)c2cccnc12`, the GI50 with DU-145 prostate is 0.612 µM; with SF-295 CNS it was 0.549 µM; in the assay with HOP-62 NSCLC, 0.356 µM; with NCI-H522 lung, 2.53 µM; in the assay on BT-549 breast, 1.2 µM; in the assay on OVCAR-8 ovarian, 1.57 µM. Also, the GI50 in the assay on UACC-62 melanoma is 0.434 µM; with SK-MEL-2 melanoma, 4.64 µM; with 786-0 renal, 1.07 µM; in the assay with SK-MEL-5 melanoma, 1.59 µM. Moreover, the TGI was above 100 µM in the assay with DU-145 prostate; 3.13 µM in the assay with SF-295 CNS; 18.4 µM in the assay with HOP-62 NSCLC; 9.95 µM with NCI-H522 lung; 29 µM in the assay on BT-549 breast; 21.9 µM with OVCAR-8 ovarian. Besides, the TGI in the assay with UACC-62 melanoma stood at 5.29 µM; in the assay with SK-MEL-2 melanoma, 30.3 µM; in the assay on 786-0 renal, 17.7 µM; in the assay on SK-MEL-5 melanoma, 5.11 µM.
Take `CC/C=C\C[C@H](O)C/C=C1/C(=O)C=C[C@@H]1C/C=C\CCCC(=O)NC(C)C`: the GI50 is 3.22 µM in the assay on DU-145 prostate; 2.42 µM in the assay on SF-295 CNS; 2.65 µM in the assay on HOP-62 NSCLC; 1.59 µM in the assay with NCI-H522 lung; 2.45 µM in the assay on BT-549 breast; 3.04 µM with OVCAR-8 ovarian. The GI50 in the assay on UACC-62 melanoma is 1.77 µM; with SK-MEL-2 melanoma it was 2.52 µM; in the assay with 786-0 renal it was 2.47 µM; in the assay with SK-MEL-5 melanoma it was 1.8 µM. In addition, the TGI with DU-145 prostate came out at 13.5 µM; in the assay on SF-295 CNS, 5.69 µM; in the assay with HOP-62 NSCLC, 6.59 µM; in the assay with NCI-H522 lung, 3.24 µM; with BT-549 breast, 6.13 µM; in the assay on OVCAR-8 ovarian it was 10.7 µM. Further, the TGI came to 4.22 µM with UACC-62 melanoma, 6.88 µM in the assay on SK-MEL-2 melanoma, 5.4 µM in the assay with 786-0 renal and 3.35 µM in the assay on SK-MEL-5 melanoma.
Take `CC1=C(C)C(=O)c2c(c(C(=O)c3ccccc3)c3nc4ccccc4n3c2C)C1=O`: the GI50 was 63.5 µM in the assay on DU-145 prostate; 38.8 µM with SF-295 CNS; 23.4 µM in the assay on HOP-62 NSCLC; above 100 µM with NCI-H522 lung; 54.7 µM in the assay on BT-549 breast; 39.7 µM with OVCAR-8 ovarian. Also, the GI50 in the assay on UACC-62 melanoma is 35 µM; with SK-MEL-2 melanoma, 47.8 µM; in the assay on 786-0 renal, 26.8 µM; in the assay on SK-MEL-5 melanoma, above 100 µM. Also, the TGI in the assay with DU-145 prostate is above 100 µM; in the assay on SF-295 CNS, above 100 µM; with HOP-62 NSCLC, 57.3 µM; in the assay with NCI-H522 lung it was above 100 µM; in the assay with BT-549 breast, above 100 µM; in the assay on OVCAR-8 ovarian it was above 100 µM. Moreover, the TGI in the assay with UACC-62 melanoma is above 100 µM; in the assay on SK-MEL-2 melanoma it was above 100 µM; with 786-0 renal, 95.2 µM; with SK-MEL-5 melanoma, above 100 µM.
With `O=[N+]([O-])c1cnc(Sc2ccncn2)c([N+](=O)[O-])c1`, the GI50 with DU-145 prostate is 16.7 µM; in the assay on SF-295 CNS, above 100 µM; in the assay with HOP-62 NSCLC it was 14.6 µM; in the assay with NCI-H522 lung it was 1.82 µM; in the assay on BT-549 breast, 15.2 µM; in the assay on OVCAR-8 ovarian, 11.7 µM. Moreover, the GI50 was 10.5 µM in the assay with UACC-62 melanoma, 16.8 µM in the assay on SK-MEL-2 melanoma, 12.2 µM in the assay on 786-0 renal and 14.3 µM with SK-MEL-5 melanoma. The TGI is 30.5 µM in the assay on DU-145 prostate; above 100 µM in the assay on SF-295 CNS; 28.1 µM in the assay with HOP-62 NSCLC; 3.45 µM in the assay on NCI-H522 lung; 28.9 µM in the assay on BT-549 breast; 25 µM in the assay with OVCAR-8 ovarian. For the same compound, the TGI in the assay on UACC-62 melanoma turned out to be 22.3 µM; in the assay on SK-MEL-2 melanoma, 32.9 µM; in the assay with 786-0 renal, 25 µM; in the assay with SK-MEL-5 melanoma, 28 µM.
Consider `CCC1=C(C)/C(=C/c2[nH]c(C)c(C(=O)CCCCC(=O)OC)c2C)N=C1c1ccc[nH]1`, for which the GI50 in the assay with DU-145 prostate is 12.2 µM; in the assay on SF-295 CNS it was 18.6 µM; in the assay on HOP-62 NSCLC, 13.9 µM; in the assay with NCI-H522 lung it was 2.36 µM; in the assay with BT-549 breast, 3.8 µM; with OVCAR-8 ovarian it was 7.46 µM. Moreover, the GI50 was 8.7 µM in the assay with UACC-62 melanoma, 19.4 µM in the assay with SK-MEL-2 melanoma, 15.1 µM with 786-0 renal and 7.8 µM in the assay on SK-MEL-5 melanoma. Also, the TGI in the assay on DU-145 prostate was 24.6 µM; with SF-295 CNS it was 42 µM; in the assay with HOP-62 NSCLC it was 28.5 µM; in the assay on NCI-H522 lung, 6.37 µM; in the assay on BT-549 breast, above 41.3 µM; in the assay with OVCAR-8 ovarian it was 42.6 µM. The TGI is 38.9 µM with UACC-62 melanoma, 46.2 µM in the assay on SK-MEL-2 melanoma, 32 µM in the assay with 786-0 renal and 20.8 µM in the assay with SK-MEL-5 melanoma.
`Oc1ccc(C(c2ccccc2)(c2ccccc2)c2ccccc2)cc1`: the GI50 in the assay on DU-145 prostate is 13.3 µM; in the assay on SF-295 CNS, 27.2 µM; in the assay with HOP-62 NSCLC, 17.6 µM; in the assay on NCI-H522 lung it was 13.7 µM; with BT-549 breast, 17.1 µM; in the assay on OVCAR-8 ovarian, 18.2 µM. Moreover, the GI50 is 16 µM in the assay on UACC-62 melanoma, 13.6 µM in the assay on SK-MEL-2 melanoma, 14.4 µM in the assay on 786-0 renal and 15.7 µM in the assay with SK-MEL-5 melanoma. Moreover, the TGI in the assay with DU-145 prostate is 27.8 µM; in the assay on SF-295 CNS, above 100 µM; in the assay on HOP-62 NSCLC, 31.5 µM; with NCI-H522 lung, 27.2 µM; in the assay on BT-549 breast, 31.3 µM; with OVCAR-8 ovarian it was 35.9 µM. The TGI turned out to be 30.6 µM in the assay with UACC-62 melanoma, 27 µM with SK-MEL-2 melanoma, 29.7 µM with 786-0 renal and 32.5 µM in the assay with SK-MEL-5 melanoma.
With `CCNC(=O)C[C@@H]1N=C(c2ccc(Cl)cc2)c2cc(OC)ccc2-n2c(C)nnc21`, the GI50 in the assay with DU-145 prostate is above 100 µM; with HOP-62 NSCLC, 2.1 µM; in the assay with NCI-H522 lung, 2.08 µM; in the assay with BT-549 breast it was above 28.1 µM; in the assay on OVCAR-8 ovarian it was 8.9 µM; in the assay with UACC-62 melanoma it was 0.618 µM. Further, the GI50 is 3.28 µM with SK-MEL-2 melanoma and 16.4 µM with 786-0 renal. Moreover, the TGI in the assay with DU-145 prostate, with SF-295 CNS, in the assay with HOP-62 NSCLC, in the assay with NCI-H522 lung, in the assay with BT-549 breast and in the assay on OVCAR-8 ovarian was above 100 µM in each case. The TGI in the assay on UACC-62 melanoma, in the assay on SK-MEL-2 melanoma, in the assay with 786-0 renal and in the assay with SK-MEL-5 melanoma was above 100 µM in each case.
As for `COc1ccc(C(=O)/C=C/c2ccc(O)c(O)c2F)c(OC)c1`, the GI50 in the assay with DU-145 prostate was 5.38 µM; in the assay with SF-295 CNS, 10.9 µM; with HOP-62 NSCLC, 19.8 µM; in the assay on NCI-H522 lung, 0.481 µM; in the assay with BT-549 breast, 6.24 µM; in the assay on OVCAR-8 ovarian it was 8.81 µM. In addition, the GI50 with 786-0 renal is 1.88 µM; in the assay on SK-MEL-5 melanoma it was 2.7 µM. The TGI is 16.2 µM and 19 µM in the assay on DU-145 prostate; 26.3 µM and 34.4 µM with SF-295 CNS; 37.1 µM and > 100 µM with HOP-62 NSCLC; 5.56 µM and 3.18 µM in the assay on NCI-H522 lung; 18 µM and 26.2 µM in the assay on BT-549 breast; 65.5 µM and > 100 µM with OVCAR-8 ovarian. In addition, the TGI with UACC-62 melanoma was 16.8 µM and 21.9 µM; with SK-MEL-2 melanoma, 13.4 µM and 13.6 µM; in the assay on 786-0 renal, 31.3 µM and 17.1 µM; with SK-MEL-5 melanoma it was 13.6 µM and 19.6 µM.
